Experiments:
[1] = system: M. smegmatis ribosomes; test: bacterial coupled transcription/translation assay, luciferase reporter (in vitro translation); assay type: biochemical; settings: for inhibition of translation of a reporter gene by Mtb ribosomes in vitro / inhibition of luciferase activity compared with chloramphenicol / IC50: FIG. 4; for inhibition of translation of a reporter gene by Mtb ribosomes in vitro: dose-dependent; for inhibition of luciferase activity compared with chloramphenicol: luciferase activity vs compound concentration; for IC50: protein synthesis by in vitro translation reaction, M. smegmatis ribosomes
[2] = system: 29mer RNA SEQ ID NO: 1, hairpin 91 of M. tuberculosis PTC; test: T2 relaxation (CPMG) NMR fragment screen; assay type: binding

SMILES	inhibition of translation of a reporter gene by Mtb ribosomes in vitro [1]	inhibition of luciferase activity compared with chloramphenicol [1]	IC50 [1]	also measured
Cc1nc(CN2CCN(Cc3csc(-c4ccccc4)n3)CC2)cs1 [Compound Nr. 2, 1-[(2-methylthiazol-4-yl)methyl]-4-[(2-phenylthiazol-4-yl)methyl]piperazine]	inhibit translation of a reporter gene	as effective inhibitor of luciferase activity as chloramphenicol	8.9 µM	inhibition activity compared among compounds ([1]; Nr. 2 compared to compounds Nr. 3, 4 and 5, data not shown): higher inhibition activity
CCN1CCN(Cc2csc(-c3ccccc3)n2)CC1 [Compound Nr. 8, 1-ethyl-4-[(2-phenylthiazol-4-yl)methyl]piperazine]	inhibit translation of a reporter gene	about twice as better than both	4.8 µM	–
CNCc1ccc(-c2nccs2)cc1 [N-methyl-4-(1,3-thiazol-2-yl)benzylamine]	–	–	–	hit in T2-edited (CPMG NMR) mini-screen ([2]; pool number 2 of three pools of 10 fragments, with and without target RNA, FIG. 3): hits
NCc1csc(-c2cccc(Cl)c2)n1 [[2-(3-chlorophenyl)-1,3-thiazol-4-yl]methanamine]	–	–	–	change in T2 upon addition of RNA ([2]; pool 81, peaks 1-3, 1D CPMG spectra, FIG. 7A): largest change in T2
O=C(N[C@H](CO)[C@H](O)c1ccc([N+](=O)[O-])cc1)C(Cl)Cl [chloramphenicol, reference compound]	–	–	9.2 µM	–

From patent publication US20220055997A1, “ANTIMICROBIAL COMPOUNDS AND COMPOSITIONS COMPRISING SAME” (B.G. NEGEV TECHNOLOGIES AND APPLICATIONS LTD., AT …, priority 2019, published 2022)
